Where “and” joins values, the source holds several entries; their conditions need not be identical. Equal entries are not always repeated.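 Results reflect a 48-hour exposure of cells in 96-well plates to compound at five concentrations. Here, GI50 denotes the concentration required for 50% inhibition of growth. Definition used: TGI = concentration required for complete inhibition of growth.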
How the values were obtained:
Test in all cases: NCI-60 cell line screen, 48 h
OVCAR-3 ovarian = test system: OVCAR-3 ovarian
HCC-2998 colon = test system: HCC-2998 colon
A498 renal = test system: A498 renal
COLO 205 colon = test system: COLO 205 colon
SK-MEL-5 melanoma = test system: SK-MEL-5 melanoma
CCRF-CEM leukemia = test system: CCRF-CEM leukemia
U251 CNS = test system: U251 CNS
MCF7 breast = test system: MCF7 breast

SMILES: O=C1/C(=C/c2ccc([N+](=O)[O-])s2)Oc2ccc(Cl)cc21
- GI50 (OVCAR-3 ovarian): 229 nM
- TGI (OVCAR-3 ovarian): 0.48 µM
- GI50 (HCC-2998 colon): 0.515 µM
- TGI (HCC-2998 colon): 1.33 µM
- GI50 (A498 renal): 1.74 µM
- TGI (A498 renal): 4.91 µM
- GI50 (COLO 205 colon): 527 nM
- TGI (COLO 205 colon): 1.36 µM
- GI50 (SK-MEL-5 melanoma): 343 nM
- TGI (SK-MEL-5 melanoma): 0.86 µM
- GI50 (CCRF-CEM leukemia): 273 nM
- TGI (CCRF-CEM leukemia): 0.72 µM
- GI50 (U251 CNS): 0.263 µM
- TGI (U251 CNS): 0.694 µM
- GI50 (MCF7 breast): 305 nM
- TGI (MCF7 breast): 1.43 µM

SMILES: CCCCCCn1c(=N)n(CC(O)COc2cccc(C)c2)c2ccccc21 (configuration not stated)
- GI50 (OVCAR-3 ovarian): 2130 nM
- TGI (OVCAR-3 ovarian): 4.98 µM
- GI50 (HCC-2998 colon): 2.04 µM
- TGI (HCC-2998 colon): 3.65 µM
- GI50 (A498 renal): 1.8 µM
- TGI (A498 renal): 7.35 µM
- GI50 (COLO 205 colon): 1900 nM
- TGI (COLO 205 colon): 3.43 µM
- GI50 (SK-MEL-5 melanoma): 1770 nM
- TGI (SK-MEL-5 melanoma): 3.2 µM
- GI50 (CCRF-CEM leukemia): 2360 nM
- TGI (CCRF-CEM leukemia): 7.14 µM
- GI50 (MCF7 breast): 1760 nM
- TGI (MCF7 breast): 3.55 µM

SMILES: COc1ccc(N2CCN(CC(=O)N3CCN(c4nnc(-c5ccc(Cl)cc5)c(-c5ccc(Cl)cc5)n4)CC3)CC2)cc1
- GI50 (OVCAR-3 ovarian): 11300 nM
- TGI (OVCAR-3 ovarian): > 100 µM
- GI50 (HCC-2998 colon): 9.94 µM
- TGI (HCC-2998 colon): > 100 µM
- GI50 (A498 renal): 13.4 µM
- TGI (A498 renal): > 100 µM
- GI50 (COLO 205 colon): 6600 nM
- TGI (COLO 205 colon): > 100 µM
- GI50 (SK-MEL-5 melanoma): 5520 nM
- TGI (SK-MEL-5 melanoma): 52.4 µM
- GI50 (CCRF-CEM leukemia): 12600 nM
- TGI (CCRF-CEM leukemia): > 100 µM
- GI50 (U251 CNS): 10.6 µM
- TGI (U251 CNS): > 100 µM
- GI50 (MCF7 breast): 3910 nM
- TGI (MCF7 breast): > 100 µM

SMILES: N#Cc1ccccc1C#C/C=C\C#Cc1cnccn1
- GI50 (OVCAR-3 ovarian): 1220 nM
- TGI (OVCAR-3 ovarian): 18.3 µM
- GI50 (HCC-2998 colon): 4.79 µM
- TGI (HCC-2998 colon): 28.2 µM
- GI50 (A498 renal): 16.2 µM
- TGI (A498 renal): 52.3 µM
- GI50 (COLO 205 colon): 19700 nM
- TGI (COLO 205 colon): > 57.5 µM
- GI50 (SK-MEL-5 melanoma): 17000 nM
- TGI (SK-MEL-5 melanoma): 45.4 µM
- GI50 (CCRF-CEM leukemia): 3090 nM
- TGI (CCRF-CEM leukemia): > 100 µM
- GI50 (U251 CNS): 30.5 µM
- TGI (U251 CNS): > 100 µM
- GI50 (MCF7 breast): > 60000 nM
- TGI (MCF7 breast): > 100 µM

SMILES: CC(C)(O)C1CC(=O)C(C)(C2C(O)CC3(C)C4CC=C5C(CCC(O)C5(C)C)C4(C)C(=O)CC23C)O1 (configuration not stated)
- TGI (OVCAR-3 ovarian): > 100 µM
- TGI (HCC-2998 colon): > 100 µM
- TGI (A498 renal): > 100 µM
- TGI (COLO 205 colon): > 100 µM
- TGI (SK-MEL-5 melanoma): > 100 µM
- TGI (U251 CNS): > 100 µM
- TGI (MCF7 breast): > 100 µM

SMILES: Cn1cc(C2=C(c3cn(CCCSC(=N)N)c4ccccc34)C(=O)NC2=O)c2ccccc21
- GI50 (OVCAR-3 ovarian): 2400 nM
- TGI (OVCAR-3 ovarian): 9.28 µM
- GI50 (HCC-2998 colon): 3.05 µM
- TGI (HCC-2998 colon): 8.89 µM
- GI50 (A498 renal): 5 µM
- TGI (A498 renal): 12 µM
- GI50 (COLO 205 colon): 668 nM
- TGI (COLO 205 colon): 1.92 µM
- GI50 (SK-MEL-5 melanoma): 1560 nM
- TGI (SK-MEL-5 melanoma): 4.27 µM
- GI50 (CCRF-CEM leukemia): 971 nM
- TGI (CCRF-CEM leukemia): 3.93 µM
- GI50 (U251 CNS): 1.61 µM
- TGI (U251 CNS): 5.06 µM
- GI50 (MCF7 breast): 799 nM
- TGI (MCF7 breast): 3 µM

SMILES: O=C(CN1C(=O)c2ccccc2C1=O)NC1(C(=O)O)CCCC1
- TGI (OVCAR-3 ovarian): > 100 µM
- TGI (HCC-2998 colon): > 100 µM
- TGI (A498 renal): > 100 µM
- TGI (COLO 205 colon): > 100 µM
- TGI (SK-MEL-5 melanoma): > 100 µM
- TGI (CCRF-CEM leukemia): > 100 µM
- TGI (U251 CNS): > 100 µM
- TGI (MCF7 breast): > 100 µM

SMILES: CC(CCC/C=C/CCCN(C)C(=N)N)CC(C)C1OC(=O)C(C)C(O)/C=C/C(C)C(O)C(C)C(O)C(C)C(O)CCCC(O)CC2(O)OC(CC(OC(=O)CC(=O)O)CC(O)CC(O)C(C)C(O)/C=C/C=C/C1C)CC(O)C2O (configuration not stated)
- GI50 (OVCAR-3 ovarian): 1.92 µM and 5.68 µg/mL
- TGI (OVCAR-3 ovarian): 3.42 µM and 15.1 µg/mL
- GI50 (HCC-2998 colon): 3.18 µM and 10.9 µg/mL
- TGI (HCC-2998 colon): 12.1 µM and 23.4 µg/mL
- GI50 (A498 renal): 2.44 µM and 10.6 µg/mL
- TGI (A498 renal): 7.16 µM and 21.3 µg/mL
- GI50 (COLO 205 colon): 1.75 µM and 2.42 µg/mL
- TGI (COLO 205 colon): 3.33 µM and 10.6 µg/mL
- GI50 (SK-MEL-5 melanoma): 1.75 µM and 1.48 µg/mL
- TGI (SK-MEL-5 melanoma): 3.18 µM and 3.33 µg/mL
- GI50 (CCRF-CEM leukemia): 2700 nM
- TGI (CCRF-CEM leukemia): 11 µM
- GI50 (U251 CNS): 3.37 µM and 3.3 µg/mL
- TGI (U251 CNS): 11.6 µM and 14.9 µg/mL
- GI50 (MCF7 breast): 1.79 µM and 3.53 µg/mL
- TGI (MCF7 breast): 3.67 µM and 14 µg/mL

SMILES: Cn1c(N)cc(=O)nc1N
- TGI (OVCAR-3 ovarian): > 100 µM
- TGI (HCC-2998 colon): > 100 µM
- TGI (A498 renal): > 100 µM
- TGI (COLO 205 colon): > 100 µM
- TGI (SK-MEL-5 melanoma): > 100 µM
- TGI (CCRF-CEM leukemia): > 100 µM
- TGI (U251 CNS): > 100 µM
- TGI (MCF7 breast): > 100 µM
